Test results taken from ChEMBL document CHEMBL3817761, “Chenopodium album metabolites act as dual topoisomerase inhibitors and induce apoptosis in the MCF7 cell line” (Medchemcomm, 2016).
Calls of active or inactive are those of the source. The calls are words filed in the database; no cut-off is given here.

What was measured:
[1] = target: T1, DNA topoisomerase 1 (Homo sapiens) (UniProt P11387); test: Poisoning activity at topoisomerase 1 in human MCF7 cells at 10 uM after 12 hrs by immunoband depletion assay; assay type: cell-based
T1 sequence (whole entry): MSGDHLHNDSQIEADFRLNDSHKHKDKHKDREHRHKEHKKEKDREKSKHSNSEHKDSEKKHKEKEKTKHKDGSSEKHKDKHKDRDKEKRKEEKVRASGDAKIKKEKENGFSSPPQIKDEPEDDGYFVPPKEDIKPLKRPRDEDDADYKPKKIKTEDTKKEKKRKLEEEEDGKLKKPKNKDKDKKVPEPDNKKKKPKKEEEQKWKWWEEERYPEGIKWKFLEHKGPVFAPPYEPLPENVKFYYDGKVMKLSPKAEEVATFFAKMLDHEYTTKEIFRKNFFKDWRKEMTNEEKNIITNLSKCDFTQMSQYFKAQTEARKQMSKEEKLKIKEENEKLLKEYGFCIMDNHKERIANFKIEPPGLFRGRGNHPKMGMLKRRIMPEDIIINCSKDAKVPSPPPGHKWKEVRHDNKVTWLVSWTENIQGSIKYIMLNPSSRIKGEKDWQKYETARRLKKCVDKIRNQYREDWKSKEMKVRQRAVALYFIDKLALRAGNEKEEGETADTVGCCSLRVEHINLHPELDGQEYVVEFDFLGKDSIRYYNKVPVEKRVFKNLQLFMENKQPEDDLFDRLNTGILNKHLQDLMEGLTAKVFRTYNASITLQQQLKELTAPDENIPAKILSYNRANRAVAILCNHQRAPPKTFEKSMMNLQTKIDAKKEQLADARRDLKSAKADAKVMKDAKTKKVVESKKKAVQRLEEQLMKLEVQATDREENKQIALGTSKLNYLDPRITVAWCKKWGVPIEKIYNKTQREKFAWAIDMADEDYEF

[2] = target: DNA topoisomerase 2-alpha (Homo sapiens) (UniProt P11388); test: Poisoning activity at topoisomerase 2 in human MCF7 cells at 10 uM after 12 hrs by immunoband depletion assay; assay type: cell-based
[3] = system: MCF7; test: Induction of mitochondrial membrane depolarization in human MCF7 cells after 24 to 48 hrs by JC-1 staining based FACS assay (reference value: 9.9%); assay type: functional
[4] = system: MCF7; test: Induction of mitochondrial membrane depolarization in human MCF7 cells assessed as ratio of red to green fluorescence after 24 to 48 hrs by JC-1 staining based FACS assay (reference value: 9.1); assay type: functional

Sequence of DNA topoisomerase 2-alpha (Homo sapiens) (P11388 whole entry): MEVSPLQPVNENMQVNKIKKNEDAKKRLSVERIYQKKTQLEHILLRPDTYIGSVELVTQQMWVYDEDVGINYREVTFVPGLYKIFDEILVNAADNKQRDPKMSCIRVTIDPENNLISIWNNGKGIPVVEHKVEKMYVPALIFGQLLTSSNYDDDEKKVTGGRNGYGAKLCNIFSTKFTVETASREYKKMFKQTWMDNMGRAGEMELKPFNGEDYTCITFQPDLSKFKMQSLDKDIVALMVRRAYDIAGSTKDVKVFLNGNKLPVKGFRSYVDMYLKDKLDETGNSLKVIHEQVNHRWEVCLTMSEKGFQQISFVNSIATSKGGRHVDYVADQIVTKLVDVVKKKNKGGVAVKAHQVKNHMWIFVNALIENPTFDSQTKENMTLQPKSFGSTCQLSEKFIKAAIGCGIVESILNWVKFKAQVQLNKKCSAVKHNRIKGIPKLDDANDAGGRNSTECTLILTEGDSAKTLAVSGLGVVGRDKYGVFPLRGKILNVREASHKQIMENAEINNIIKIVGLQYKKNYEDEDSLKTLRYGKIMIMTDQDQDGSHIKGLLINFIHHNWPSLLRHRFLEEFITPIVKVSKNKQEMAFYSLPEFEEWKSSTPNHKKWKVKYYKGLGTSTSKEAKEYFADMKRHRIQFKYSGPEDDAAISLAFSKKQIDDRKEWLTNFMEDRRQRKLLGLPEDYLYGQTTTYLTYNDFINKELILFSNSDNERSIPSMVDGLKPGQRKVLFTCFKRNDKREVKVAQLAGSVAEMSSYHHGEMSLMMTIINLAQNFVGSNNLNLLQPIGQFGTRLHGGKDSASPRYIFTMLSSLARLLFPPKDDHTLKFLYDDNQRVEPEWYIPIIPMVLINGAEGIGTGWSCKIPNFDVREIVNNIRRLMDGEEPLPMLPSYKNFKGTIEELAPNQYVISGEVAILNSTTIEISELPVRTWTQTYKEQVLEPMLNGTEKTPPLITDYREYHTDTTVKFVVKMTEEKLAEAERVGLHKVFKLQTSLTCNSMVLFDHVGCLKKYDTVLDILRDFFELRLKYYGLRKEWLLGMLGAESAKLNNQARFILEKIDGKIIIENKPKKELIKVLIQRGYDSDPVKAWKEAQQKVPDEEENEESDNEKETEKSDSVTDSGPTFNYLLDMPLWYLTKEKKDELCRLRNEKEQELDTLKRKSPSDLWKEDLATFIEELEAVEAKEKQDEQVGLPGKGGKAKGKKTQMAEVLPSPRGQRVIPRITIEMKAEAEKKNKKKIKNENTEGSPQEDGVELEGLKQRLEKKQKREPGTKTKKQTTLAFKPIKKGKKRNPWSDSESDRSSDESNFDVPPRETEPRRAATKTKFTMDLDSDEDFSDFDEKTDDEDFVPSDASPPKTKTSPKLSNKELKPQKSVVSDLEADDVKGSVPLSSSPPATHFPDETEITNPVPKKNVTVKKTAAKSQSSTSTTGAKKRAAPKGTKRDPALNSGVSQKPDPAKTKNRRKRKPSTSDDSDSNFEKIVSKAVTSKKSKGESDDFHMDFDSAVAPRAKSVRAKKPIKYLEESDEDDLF

In the case of CC[C@@]1(O)C(=O)OCc2c1cc1n(c2=O)Cc2cc3ccccc3nc2-1, the Activity [1] is reported as “Active”.
In the case of COc1cc([C@@H]2c3cc4c(cc3[C@@H](O[C@@H]3O[C@@H]5CO[C@@H](C)O[C@H]5[C@H](O)[C@H]3O)[C@H]3COC(=O)[C@H]23)OCO4)cc(OC)c1O, the Activity [2] is reported as “Active”.
Molecule N#CC(C#N)=NNc1cccc(Cl)c1 [CARBONYL CYANIDE M-CHLOROPHENYLHYDRAZONE] has an Activity [3] of 98.8% and a Ratio [4] of 0.014.
